These are literature values, as cited in patent US20200215024A1, “CANNABINOID FORMULATIONS FOR TREATING ALCOHOL HANGOVER” (Replennabis LLC, priority 2019, published 2020).

The conditions of this data set: in vivo.

As for `CCCCCc1cc(O)c2c(c1)OC(C)(C)[C@@H]1CCC(C)=C[C@@H]21` [THC, tetrahydrocannabinol], the oral bioavailability result is on record as “less than 8%”.
